The source of these data is patent US20250367631A1, “TWO PHASE FLOWS FOR REACTIONS AND SEPARATIONS” (University of Delaware, priority 2024, published 2025).

Data set [1] is described as follows: Organic solvent properties used in the CFD model (Table 2). Type of data set: physicochemical. The settings on record: for Density / Dynamic viscosity: organic solvent; for Interfacial Tension: organic solvent / water. The text has this:
Principal component analysis (PCA) was used to identify the number of features required to capture the system's behavior. Considering material properties and dimensionless groups of both phases gave a total of 26 features (See Table 1 and definitions in the Supplemental Information (SI) herein below). The dimensionless groups were based on previous work. See, e.g., Chen, supra; Zhao, Y.; Chen, G.; Yuan, Q. “Liquid-liquid two-phase flow patterns in a rectangular microchannel.” AIChE Journal 2006, 52 (12), 4052-4060; Yagodnitsyna, A. A.; Kovalev, A. V.; Bilsky, A. V. “Flow patterns of immiscible liquid-liquid flow in a rectangular microchannel with T-junction.” Chemical Engineering Journal 2016, 303, 547-554; Zhao, C. X.; Middelberg, A. P. J. “Two-phase microfluidic flows.” Chemical Engineering Science 2011, 66 (7), 1394-1411. Apart from PCA, feature importance can rank features for classifying flowpatterns. A clustered covariance matrix may be employed to group dependent variables. We implemented these algorithms using the sklearn library in Python.
FIG. 11a, b, d and FIG. 11c maps the conditions for our experimental and computational flow patterns, respectively. As the diameter increases, different flow conditions (total volumetric flow rate, org/aq (v/v) ratio, various organic solvents) lead to varying patterns. […] For larger diameters, the parallel flow becomes prominent (FIG. 11c). […] At lower experimental flow rates (0.1-10 ml/min), no irregular flow is observed.

The conditions of data set [2]: per Chen et al., cited from earlier work; for Diffusivity: HMF in the organic solvent; for Partition Coefficient: HMF, organic solvent/water.
For data set [3] the following is noted: experimentally shown, Wang et al., cited from earlier work.

Where two headings read alike, the source gives them in different places.

For the compound `CCOC(C)=O` [EtAc, ethyl acetate], in data set [1], the Density is listed as 900 kg m^−3, the Dynamic viscosity is 4.41 × 10^−4 Pa · s and the “Interfacial Tension” value was 0.0074 N m^−1. In data set [2], the Diffusivity was 2.87 × 10^−9 m^2/s and the “Partition Coefficient” value is 1.4 ± 0.05.

Take `Cc1cccc(O)c1` [m-cresol]: the “KHMF (HMF partition coefficient)” value in data set [3] (25° C.) was 20.6; in data set [3] (150° C.) it was 4.2.

In the case of `CC(=O)CC(C)C` [MIBK, methyl isobutyl ketone], in data set [1], the Density was 684 kg m^−3, the Dynamic viscosity is listed as 5.85 × 10^−4 Pa · s and the “Interfacial Tension” value is given as 0.0157 N m^−1. Besides, in data set [2], the Diffusivity was 2.43 × 10^−9 m^2/s and the “Partition Coefficient” value is 1.1 ± 0.03.

With `CCCC(C)O` (centres unmarked) [2-pentanol], in data set [1], the Density is 812 kg m^−3, the Dynamic viscosity is given as 3.47 × 10^−3 Pa · s and the “Interfacial Tension” value worked out at 0.0034 N m^−1. Further, in data set [2], the Diffusivity is listed as 3.81 × 10^−10 m^2/s and the “Partition Coefficient” value is listed as 1.3 ± 0.07.
